# Assay results reported in patent US20230085307A1, “PYRIDAZINONE COMPOUND AND HERBICIDE” (NISSAN CHEMICAL CORPORATION, priority 2019, published 2023).
# Experiments:
# late watergrass = test: Test Example 1: herbicidal activity, application before weed generation under submerged conditions (Table 16, symbol A); assay type: in vivo, late watergrass (Echinochloa oryzicola)
# How it was run: (§1)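 Alluvial soil was flooded to 4 cm depth, weed seeds were sown mixed and 2.5-leaf rice seedlings were transplanted. On sowing day, the compound's emulsion, diluted in water to a set dose, was applied to the water surface. Plants grew at 25–30 °C and were scored 0–5 after three weeks.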
# Japanese bulrush = test: Test Example 1: herbicidal activity, application before weed generation under submerged conditions (Table 16, symbol B); assay type: in vivo, Japanese bulrush (Schoenoplectus juncoides)
# How it was run: as §1
# oval-leafed pondweed = test: Test Example 1: herbicidal activity, application before weed generation under submerged conditions (Table 16, symbol C); assay type: in vivo, oval-leafed pondweed (Monochoria vaginalis)
# How it was run: as §1
# barnyard grass [1] = test: Test Example 3: herbicidal effect by foliage application, Wagner pot (Table 18, symbol H); assay type: in vivo, barnyard grass (Echinochloa crus-galli); details: amount of applied herbicide 320 g/ha
# How it was run: (§2)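 Plants were sown in alluvial soil held under 0.1–0.5 cm standing water and grown 14 days in a greenhouse at 25–30 °C. An emulsifiable formulation, water-diluted to the set dose, was then sprayed onto the foliage, and effects were scored three weeks later using previously defined criteria.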
# Chinese sprangletop = test: Test Example 3: herbicidal effect by foliage application, Wagner pot (Table 18, symbol D); assay type: in vivo, chinese sprangletop (Leptochloa chinensis); details: amount of applied herbicide 320 g/ha
# How it was run: as §2
# rice flat sedge = test: Test Example 3: herbicidal effect by foliage application, Wagner pot (Table 18, symbol E); assay type: in vivo, rice flat sedge (Cyperus iria); details: amount of applied herbicide 320 g/ha
# How it was run: as §2
# southern crabgrass [2] = test: Test Example 5: herbicidal effect by foliage application, plastic box (Table 20, symbol F); assay type: in vivo, southern crabgrass (Digitaria ciliaris); details: foliage application
# How it was run: (§3)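 Sow seeds spot-wise in sterilized diluvial soil; cover with ~1.5 cm soil. Grow 14 days in greenhouse, 25° C. to 30° C. Spray foliage with emulsion diluted to predetermined amount. Rate effect after 3 weeks.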
# green foxtail [3] = test: Test Example 5: herbicidal effect by foliage application, plastic box (Table 20, symbol G); assay type: in vivo, green foxtail (Setaria viridis); details: foliage application
# How it was run: as §3
# barnyard grass [4] = test: Test Example 5: herbicidal effect by foliage application, plastic box (Table 20, symbol H); assay type: in vivo, barnyard grass (Echinochloa crus-galli); details: foliage application
# How it was run: as §3
# wild oat [5] = test: Test Example 5: herbicidal effect by foliage application, plastic box (Table 20, symbol I); assay type: in vivo, wild oat (Avena fatua); details: foliage application
# How it was run: as §3
# blackgrass [6] = test: Test Example 5: herbicidal effect by foliage application, plastic box (Table 20, symbol J); assay type: in vivo, blackgrass (Alopecurus myosuroides); details: foliage application
# How it was run: as §3
# Italian ryegrass [7] = test: Test Example 5: herbicidal effect by foliage application, plastic box (Table 20, symbol K); assay type: in vivo, Italian ryegrass (Lolium multiflorum); details: foliage application
# How it was run: as §3
# windgrass [8] = test: Test Example 5: herbicidal effect by foliage application, plastic box (Table 20, symbol L); assay type: in vivo, windgrass (Apera spica-venti); details: foliage application
# How it was run: as §3
# velvetleaf [9] = test: Test Example 5: herbicidal effect by foliage application, plastic box (Table 20, symbol M); assay type: in vivo, velvetleaf (Abutilon theophrasti); details: foliage application
# How it was run: as §3
# redroot pigweed [10] = test: Test Example 5: herbicidal effect by foliage application, plastic box (Table 20, symbol N); assay type: in vivo, redroot pigweed (Amaranthus retroflexus); details: foliage application
# How it was run: as §3
# lambsquarters [11] = test: Test Example 5: herbicidal effect by foliage application, plastic box (Table 20, symbol O); assay type: in vivo, lambsquarters (Chenopodium album); details: foliage application
# How it was run: as §3
# chickweed [12] = test: Test Example 5: herbicidal effect by foliage application, plastic box (Table 20, symbol P); assay type: in vivo, common chickweed (Stellaria media); details: foliage application
# How it was run: as §3
# false cleavers = test: Test Example 5: herbicidal effect by foliage application, plastic box (Table 20, symbol Q); assay type: in vivo, false cleavers (Galium spurium); details: foliage application
# How it was run: as §3
# persian speedwell = test: Test Example 5: herbicidal effect by foliage application, plastic box (Table 20, symbol R); assay type: in vivo, Persian speedwell (Veronica persica); details: foliage application
# How it was run: as §3
# southern crabgrass [13] = test: Test Example 4: herbicidal effect by soil treatment (Table 19, symbol F); assay type: in vivo, southern crabgrass (Digitaria ciliaris); details: amount of applied herbicide 320 g/ha
# How it was run: (§4)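 Soil-surface application: an emulsion agent diluted with water to the predetermined dose is sprayed uniformly over seeds lying under roughly 1.5 cm of sterilized diluvial soil. Boxes stay in a greenhouse at 25° C. to 30° C. Three weeks later, each species is graded on previously defined criteria.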
# green foxtail [14] = test: Test Example 4: herbicidal effect by soil treatment (Table 19, symbol G); assay type: in vivo, green foxtail (Setaria viridis); details: amount of applied herbicide 320 g/ha
# How it was run: as §4
# barnyard grass [15] = test: Test Example 4: herbicidal effect by soil treatment (Table 19, symbol H); assay type: in vivo, barnyard grass (Echinochloa crus-galli); details: amount of applied herbicide 320 g/ha
# How it was run: as §4
# wild oat [16] = test: Test Example 4: herbicidal effect by soil treatment (Table 19, symbol I); assay type: in vivo, wild oat (Avena fatua); details: amount of applied herbicide 320 g/ha
# How it was run: as §4
# blackgrass [17] = test: Test Example 4: herbicidal effect by soil treatment (Table 19, symbol J); assay type: in vivo, blackgrass (Alopecurus myosuroides); details: amount of applied herbicide 320 g/ha
# How it was run: as §4
# Italian ryegrass [18] = test: Test Example 4: herbicidal effect by soil treatment (Table 19, symbol K); assay type: in vivo, Italian ryegrass (Lolium multiflorum); details: amount of applied herbicide 320 g/ha
# How it was run: as §4
# windgrass [19] = test: Test Example 4: herbicidal effect by soil treatment (Table 19, symbol L); assay type: in vivo, windgrass (Apera spica-venti); details: amount of applied herbicide 320 g/ha
# How it was run: as §4
# velvetleaf [20] = test: Test Example 4: herbicidal effect by soil treatment (Table 19, symbol M); assay type: in vivo, velvetleaf (Abutilon theophrasti); details: amount of applied herbicide 320 g/ha
# How it was run: as §4
# redroot pigweed [21] = test: Test Example 4: herbicidal effect by soil treatment (Table 19, symbol N); assay type: in vivo, redroot pigweed (Amaranthus retroflexus); details: amount of applied herbicide 320 g/ha
# How it was run: as §4
# lambsquarters [22] = test: Test Example 4: herbicidal effect by soil treatment (Table 19, symbol O); assay type: in vivo, lambsquarters (Chenopodium album); details: amount of applied herbicide 320 g/ha
# How it was run: as §4
# chickweed [23] = test: Test Example 4: herbicidal effect by soil treatment (Table 19, symbol P); assay type: in vivo, common chickweed (Stellaria media); details: amount of applied herbicide 320 g/ha
# How it was run: as §4
# [24] = AAH 320 g/ha, evaluated three weeks after application
# [25] = amount of applied herbicide 320 g/ha
# [26] = 320 g/ha, three weeks after application
structure (smiles),measurement,setting,value
C=CCOc1cccc(-c2sc3ccc(F)cc3c2-c2c(O)c(C)nn(C)c2=O)c1 [2-269],Herbicidal effect on A: late watergrass (grade 0-5),late watergrass; 320 g/ha applied herbicide,3 (Herbicidal rate of 40% or more and less than 70%)
same,Herbicidal effect on B: Japanese bulrush (grade 0-5),Japanese bulrush; 320 g/ha applied herbicide,3 (Herbicidal rate of 40% or more and less than 70%)
same,Herbicidal effect on C: oval-leafed pondweed (grade 0-5),oval-leafed pondweed; 320 g/ha applied herbicide,3 (Herbicidal rate of 40% or more and less than 70%)
same,herbicidal effect on H: barnyard grass,barnyard grass [1],3 (Herbicidal rate of 40% or more and less than 70%)
same,herbicidal effect on D: Chinese sprangletop,Chinese sprangletop,0 (Herbicidal rate of 5% or less (almost no effect))
same,herbicidal effect on E: rice flat sedge,rice flat sedge,3 (Herbicidal rate of 40% or more and less than 70%)
same,"F: southern crabgrass, herbicidal effect (criteria 0-5)",southern crabgrass [2]; [24],0 (Herbicidal rate of 5% or less (almost no effect))
same,"G: green foxtail, herbicidal effect (criteria 0-5)",green foxtail [3]; [24],0 (Herbicidal rate of 5% or less (almost no effect))
same,"H: barnyard grass, herbicidal effect (criteria 0-5)",barnyard grass [4]; [24],0 (Herbicidal rate of 5% or less (almost no effect))
same,"I: wild oat, herbicidal effect (criteria 0-5)",wild oat [5]; [24],0 (Herbicidal rate of 5% or less (almost no effect))
same,"J: blackgrass, herbicidal effect (criteria 0-5)",blackgrass [6]; [24],0 (Herbicidal rate of 5% or less (almost no effect))
same,"K: Italian ryegrass, herbicidal effect (criteria 0-5)",Italian ryegrass [7]; [24],0 (Herbicidal rate of 5% or less (almost no effect))
same,"L: windgrass, herbicidal effect (criteria 0-5)",windgrass [8]; [24],0 (Herbicidal rate of 5% or less (almost no effect))
same,"M: velvetleaf, herbicidal effect (criteria 0-5)",velvetleaf [9]; [24],0 (Herbicidal rate of 5% or less (almost no effect))
same,"N: redroot pigweed, herbicidal effect (criteria 0-5)",redroot pigweed [10]; [24],0 (Herbicidal rate of 5% or less (almost no effect))
same,"O: lambsquarters, herbicidal effect (criteria 0-5)",lambsquarters [11]; [24],0 (Herbicidal rate of 5% or less (almost no effect))
same,"P: chickweed, herbicidal effect (criteria 0-5)",chickweed [12]; [24],3 (Herbicidal rate of 40% or more and less than 70%)
same,"Q: false cleavers, herbicidal effect (criteria 0-5)",false cleavers; [24],0 (Herbicidal rate of 5% or less (almost no effect))
same,"R: persian speedwell, herbicidal effect (criteria 0-5)",persian speedwell; [24],1 (Herbicidal rate of 5% or more and less than 20%)
Cc1nn(C)c(=O)c(-c2c(-c3ccc(OC(C)C)cc3)sc3cc(F)ccc23)c1O [3-019],"Herbicidal effect, A: late watergrass",late watergrass; [25],3 (Herbicidal rate of 40% or more and less than 70%)
same,"Herbicidal effect, B: Japanese bulrush",Japanese bulrush; [25],3 (Herbicidal rate of 40% or more and less than 70%)
same,"Herbicidal effect, C: oval-leafed pondweed",oval-leafed pondweed; [25],3 (Herbicidal rate of 40% or more and less than 70%)
same,herbicidal effect on H: barnyard grass,barnyard grass [1],3 (Herbicidal rate of 40% or more and less than 70%)
same,herbicidal effect on D: Chinese sprangletop,Chinese sprangletop,0 (Herbicidal rate of 5% or less (almost no effect))
same,herbicidal effect on E: rice flat sedge,rice flat sedge,3 (Herbicidal rate of 40% or more and less than 70%)
same,"herbicidal effect, F: southern crabgrass",southern crabgrass [13],0 (Herbicidal rate of 5% or less (almost no effect))
same,"herbicidal effect, G: green foxtail",green foxtail [14],2 (Herbicidal rate of 20% or more and less than 40%)
same,"herbicidal effect, H: barnyard grass",barnyard grass [15],0 (Herbicidal rate of 5% or less (almost no effect))
same,"herbicidal effect, I: wild oat",wild oat [16],0 (Herbicidal rate of 5% or less (almost no effect))
same,"herbicidal effect, J: blackgrass",blackgrass [17],0 (Herbicidal rate of 5% or less (almost no effect))
same,"herbicidal effect, K: Italian ryegrass",Italian ryegrass [18],0 (Herbicidal rate of 5% or less (almost no effect))
same,"herbicidal effect, L: windgrass",windgrass [19],0 (Herbicidal rate of 5% or less (almost no effect))
same,"herbicidal effect, M: velvetleaf",velvetleaf [20],0 (Herbicidal rate of 5% or less (almost no effect))
same,"herbicidal effect, N: redroot pigweed",redroot pigweed [21],3 (Herbicidal rate of 40% or more and less than 70%)
same,"herbicidal effect, O: lambsquarters",lambsquarters [22],3 (Herbicidal rate of 40% or more and less than 70%)
same,"herbicidal effect, P: chickweed",chickweed [23],0 (Herbicidal rate of 5% or less (almost no effect))
same,"F: southern crabgrass, herbicidal effect grade",southern crabgrass [2]; [26],0 (Herbicidal rate of 5% or less (almost no effect))
same,"G: green foxtail, herbicidal effect grade",green foxtail [3]; [26],4 (Herbicidal rate of 70% or more and less than 90%)
same,"H: barnyard grass, herbicidal effect grade",barnyard grass [4]; [26],3 (Herbicidal rate of 40% or more and less than 70%)
same,"I: wild oat, herbicidal effect grade",wild oat [5]; [26],0 (Herbicidal rate of 5% or less (almost no effect))
same,"J: blackgrass, herbicidal effect grade",blackgrass [6]; [26],3 (Herbicidal rate of 40% or more and less than 70%)
same,"K: Italian ryegrass, herbicidal effect grade",Italian ryegrass [7]; [26],3 (Herbicidal rate of 40% or more and less than 70%)
same,"L: windgrass, herbicidal effect grade",windgrass [8]; [26],3 (Herbicidal rate of 40% or more and less than 70%)
same,"M: velvetleaf, herbicidal effect grade",velvetleaf [9]; [26],3 (Herbicidal rate of 40% or more and less than 70%)
same,"N: redroot pigweed, herbicidal effect grade",redroot pigweed [10]; [26],5 (Herbicidal rate of 90% or more (almost completely withered))
same,"O: lambsquarters, herbicidal effect grade",lambsquarters [11]; [26],0 (Herbicidal rate of 5% or less (almost no effect))
same,"P: chickweed, herbicidal effect grade",chickweed [12]; [26],5 (Herbicidal rate of 90% or more (almost completely withered))
same,"Q: false cleavers, herbicidal effect grade",false cleavers; [26],4 (Herbicidal rate of 70% or more and less than 90%)
same,"R: persian speedwell, herbicidal effect grade",persian speedwell; [26],5 (Herbicidal rate of 90% or more (almost completely withered))
